According to patent US20060014704A1, “Compounds and their preparation for the treatment of Alzheimer's disease by inhibiting beta-amyloid peptide production” (priority 2004, published 2006):
Entries after “also recorded” stand apart in the source; their conditions may differ. Where two headings read alike, the source gives them in different places. Blank lines part the entries; values can stand above or below the molecule they belong to.

Assays:
[1] = tested on: Aβ40 and Aβ42 generation, Neuro2a-SW cells; assay: Aβ generation in Neuro2a cells expressing human Swedish mutant APP (Neuro2a-SW); format: cell-based, mouse; details: FIG. 16; for levels of Aβ42 / production of Aβ42: Neuro2a-SW
Description: FIG. 16 depicts the effects of two major metabolites of ginsenosides, including 20(S)-protopanaxatriol (PPT) and 20(S)-protopanaxadiol (PPD) on Aβ42 generation. 20(S)-panaxatriol (PT) and 20(S)-panaxadiol (PD) are the artificial derivatives of PPT and PPPD, respectively.
Ginsenosides are metabolized by human intestinal bacteria after oral administration of ginseng extract (Kobayashi K., et al., Metabolism of ginsenoside by human intestinal bacteria [II] Ginseng Review 1994; 18: 10-14; Hasegawa H., et al., Main ginseng saponin metabolites formed by intestinal bacteria. Planta Med. 1996; 62: 453-457.). Therefore, the effects of two major metabolites of ginsenosides, including 20(S)-protopanaxatriol (PPT) and 20(S)-protopanaxadiol (PPD) on Aβ42 generation were tested. 20(S)-panaxatriol (PT) and 20(S)-panaxadiol (PD) are the artificial derivatives of PPT and PPPD, respectively.

[2] = tested on: Aβ40 and Aβ42 production, CHO cells stably transfected with human APP695; assay: Secreted Aβ40/Aβ42 ELISA in CHO cells expressing human APP (CHO-APP cells); format: cell-based, Chinese hamster; parameters: key to Aβ42-lowering activity: Aβ42-lowering activity (“Yes”); no profound effects (“No”); non-determined (“ND”); Ginsenosides that affected cell viability are indicated as “Cytotoxic.”; details: for Aβ42-lowering activity: summary of Tables 1-3; for levels of Aβ42 / production of Aβ42: CHO cells expressing wild-type human APP, PPT/PT; for inhibitory effects on Aβ40 production / inhibitory effects on Aβ42 production: ginsenosides of unprocessed ginseng, 8 hours, FIG. 10 (50 μM)
Protocol: The CHO cells were treated with the indicated compounds (at 50 μg/ml) for 8 hrs. Aβ42 levels in the medium were measured by ELISA and normalized to intracellular full-length APP.
The potential effects of ginsenosides and their analogues in treating AD were examined. First, a number of ginsenosides were screened based on their effects on Aβ generation. The effects of various ginsenosides on Aβ (e.g., Aβ40 and Aβ42) production was initially accessed by incubating the Chinese hamster ovary (CHO) cells expressing human APP(CHO-APP cells) with each ginsenoside purified from unprocessed ginseng (known as “white ginseng”). These representative ginsenosides included Rb1, Rb2, Rc, Rd, Re, Re, Rg1 and Rg2 and differ in their side chains and sugar moieties.
After 8 hours of incubation, the media were collected and the levels of secreted Aβ40 and Aβ42 were determined by ELISA.

[3] = tested on: Aβ40 and Aβ42 production, CHO-APP/PS1 cells; assay: Secreted Aβ ELISA in CHO-APP/PS1 cells (wild-type PS1); format: cell-based, Chinese hamster; details: 50 μM, 8 hrs, FIG. 11; for secretion of Aβ42: heat-processing derived ginsenosides
Protocol: The effects of Rg5 on the Aβ42 generation were much smaller as compared to Rgk351 and Rk1.
FIG. 10 depicts the effects of native ginsenosides on Aβ42 production. CHO cells stably transfected with human APP695 together with either wild-type (A, CHO-APP/PS1 cells) or ΔE9 FAD mutant (B, CHO-APP/ΔE9PS1 cells) forms of PS1 were used. Cells were treated with the indicated compounds (at 50 μM) for 8 hrs. Levels of secreted Aβ40 and Aβ42 in the medium were determined by ELISA and normalized to intracellular full-length APP. In CHO-APP/PS1 cells, average Aβ amounts in control samples were 320 pM for Aβ40 and 79 pM for Aβ42. The relative levels of Aβ and Aβ42 were normalized to values obtained from non-treated and vehicle-treated cells and are shown as % to control+s.d.). One of three representative experiments are shown.
CHO-APP/PS1 (A) and CHO-APP/ΔE9PS1 (B) cells were treated with the indicated compounds at 50 μM for 8 hrs and the levels of secreted Aβ40 and Aβ42 were determined as described in FIG. 1. […] The PS1-ΔE9 FAD mutation diminished the Aβ42 response to Rk1 treatment (B).

[4] = tested on: Aβ42 production in mammalian cells; details: Tae-Wan Kim et al.; cited from earlier work
[5] = target: γ-secretase (Homo sapiens, UniProt P49768); assay: Cell-free γ-secretase assay (CHAPSO-solubilized membrane fractions, recombinant substrates, Aβ ELISA); format: biochemical; details: cell-free γ-secretase assay, FIG. 15 (100 μM in A)
Protocol: (A) CHAPSO-solubilized membrane fractions were incubated with recombinant γ-secretase substrates together with the indicated compounds (at 100 μM) and the levels of Aβ42 and Aβ40 were determined by ELISA as described (27-29). (B) Dose-response of Aβ40 and Aβ42-lowering activity of Rk1 and (20S)Rg3 in a cell-free γ-secretase assay.
Next, the inhibitory effects of Rk1 and (20S)Rg3 on Aβ generation in an in vitro γ-secretase assay was studied. […] In contrast, naproxen, an NSAID without Aβ42-lowering activity, had no effects on Aβ42 production (FIG. 15A).

[6] = target: T1, γ-secretase cleavage of Notch1 (NICD) (Homo sapiens, UniProt P49768); assay: Cell-free generation of NICD from membrane fractions of 293 cells overexpressing Notch-AE; format: biochemical
T1 construct: Membrane fractions isolated from 293 cells overexpressing either APP (A), Notch-AE (B) or p75-AE (C); endogenous in cells; host or cells: 293 cells (membrane fractions); only the substrates APP, Notch-ΔE and p75-ΔE are overexpressed
Protocol: (§1) Membrane fractions isolated from 293 cells overexpressing either APP (A), Notch-AE (B) or p75-AE (C) and incubated in the presence of indicated compounds: Compound E (CpdE, general γ-secretase inhibitor), Rgk351, Rk1 and sulindac sulfide (SS).

[7] = target: T2, γ-secretase cleavage of APP (AICD) (Homo sapiens, UniProt P49768); assay: Cell-free generation of AICD from membrane fractions of 293 cells overexpressing APP; format: biochemical
T2 construct: Membrane fractions isolated from 293 cells overexpressing either APP (A), Notch-AE (B) or p75-AE (C); endogenous in cells; host or cells: 293 cells (membrane fractions); only the substrates APP, Notch-ΔE and p75-ΔE are overexpressed
Protocol: as §1

[8] = target: T3, γ-secretase cleavage of p75 neurotrophin receptor (p75-ICD) (Homo sapiens, UniProt P49768); assay: Cell-free generation of p75-ICD from membrane fractions of 293 cells overexpressing p75-AE; format: biochemical
T3 construct: Membrane fractions isolated from 293 cells overexpressing either APP (A), Notch-AE (B) or p75-AE (C); endogenous in cells; host or cells: 293 cells (membrane fractions); only the substrates APP, Notch-ΔE and p75-ΔE are overexpressed
Protocol: as §1

SMILES: CC1(C)CCC[C@](C)([C@H]2CC[C@]3(C)[C@@H]2[C@H](O)C[C@@H]2[C@@]4(C)CC[C@H](O)C(C)(C)[C@@H]4CC[C@]23C)O1 [PD, 20(S)-panaxadiol]
inhibitory effects on Aβ40 generation [1]: did not confer any inhibitory effects
inhibitory effects on Aβ42 generation [1]: did not confer any inhibitory effects

SMILES: CC(C)=CC/C=C(\C)[C@H]1CC[C@]2(C)[C@@H]1[C@H](O)C[C@@H]1[C@@]3(C)CC[C@H](O)C(C)(C)[C@@H]3[C@@H](O[C@@H]3O[C@H](CO)[C@@H](O)[C@H](O)[C@H]3O)C[C@]12C [Rh4]
Aβ42-lowering activity [2]: No

SMILES: CC(C)=CCC[C@](C)(O)[C@H]1CC[C@]2(C)[C@@H]1[C@H](O)C[C@@H]1[C@@]3(C)CC[C@H](O)C(C)(C)[C@@H]3[C@@H](O[C@@H]3O[C@H](CO)[C@@H](O)[C@H](O)[C@H]3O)C[C@]12C [Rh1]
secretion of Aβ42 [3]: not significant; also recorded: not affected
Aβ42-lowering activity [2]: No

SMILES: CC(C)=CCC[C@](C)(O[C@@H]1O[C@H](CO[C@@H]2OC[C@@H](O)[C@H](O)[C@H]2O)[C@@H](O)[C@H](O)[C@H]1O)[C@H]1CC[C@]2(C)[C@@H]1[C@H](O)C[C@@H]1[C@@]3(C)CC[C@H](O[C@@H]4O[C@H](CO)[C@@H](O)[C@H](O)[C@H]4O[C@@H]4O[C@H](CO)[C@@H](O)[C@H](O)[C@H]4O)C(C)(C)[C@@H]3CC[C@]12C [Rb3]
Aβ42-lowering activity [2]: No

SMILES: CC1(C)CCC[C@](C)([C@H]2CC[C@]3(C)[C@@H]2[C@H](O)C[C@@H]2[C@@]4(C)CC[C@H](O)C(C)(C)[C@@H]4[C@@H](O)C[C@]23C)O1 [PT, 20(S)-panaxatriol]
levels of Aβ42 [2]: without affecting
production of Aβ42 [2]: reduced the production of Aβ42
levels of Aβ42 [1]: without affecting
production of Aβ42 [1]: reduced the production of Aβ42

SMILES: C=C(CCC=C(C)C)[C@H]1CC[C@]2(C)[C@@H]1[C@H](O)C[C@@H]1[C@@]3(C)CC[C@H](O)C(C)(C)[C@@H]3[C@@H](O[C@@H]3O[C@H](CO)[C@@H](O)[C@H](O)[C@H]3O)C[C@]12C [Rk3]
Aβ42-lowering activity [2]: No

SMILES: CC(C)=CCC[C@](C)(O[C@@H]1O[C@H](CO[C@@H]2OC[C@H](O)[C@H](O)[C@H]2O)[C@@H](O)[C@H](O)[C@H]1O)[C@H]1CC[C@]2(C)[C@@H]1[C@H](O)C[C@@H]1[C@@]3(C)CC[C@H](O[C@@H]4O[C@H](CO)[C@@H](O)[C@H](O)[C@H]4O[C@@H]4O[C@H](CO)[C@@H](O)[C@H](O)[C@H]4O)C(C)(C)[C@@H]3CC[C@]12C [Rb2]
inhibitory effects on Aβ40 production [2]: None
inhibitory effects on Aβ42 production [2]: None
Aβ42-lowering activity [2]: No

SMILES: CC(C)=CCC[C@](C)(O[C@@H]1O[C@H](CO[C@@H]2O[C@H](CO)[C@@H](O)[C@H](O)[C@H]2O)[C@@H](O)[C@H](O)[C@H]1O)[C@H]1CC[C@]2(C)[C@@H]1[C@H](O)C[C@@H]1[C@@]3(C)CC[C@H](O[C@@H]4O[C@H](CO)[C@@H](O)[C@H](O)[C@H]4O[C@@H]4O[C@H](CO)[C@@H](O)[C@H](O)[C@H]4O)C(C)(C)[C@@H]3CC[C@]12C [Rb1]
inhibitory effects on Aβ40 production [2]: None
inhibitory effects on Aβ42 production [2]: None
Aβ42-lowering activity [2]: No

SMILES: CC(C)=CCC[C@](C)(O)[C@H]1CC[C@]2(C)[C@@H]1[C@H](O)C[C@@H]1[C@@]3(C)CC[C@H](O)C(C)(C)[C@@H]3[C@@H](O)C[C@]12C [PPT, 20(S)-protopanaxatriol]
levels of Aβ42 [2]: without affecting
production of Aβ42 [2]: reduced the production of Aβ42
Aβ42-lowering activity [2]: Yes
levels of Aβ42 [1]: without affecting
production of Aβ42 [1]: reduced the production of Aβ42

SMILES: CC(C)=CCC[C@](C)(O)[C@H]1CC[C@]2(C)[C@@H]1[C@H](O)C[C@@H]1[C@@]3(C)CC[C@H](O)C(C)(C)[C@@H]3[C@@H](O[C@@H]3O[C@H](CO)[C@@H](O)[C@H](O)[C@H]3O[C@@H]3O[C@@H](C)[C@H](O)[C@@H](O)[C@H]3O)C[C@]12C [Rg2]
inhibitory effects on Aβ40 production [2]: None
inhibitory effects on Aβ42 production [2]: None
Aβ42-lowering activity [2]: No

SMILES: CC(C)=CCC[C@](C)(O[C@@H]1O[C@H](CO)[C@@H](O)[C@H](O)[C@H]1O)[C@H]1CC[C@]2(C)[C@@H]1[C@H](O)C[C@@H]1[C@@]3(C)CC[C@H](O)C(C)(C)[C@@H]3[C@@H](O[C@@H]3O[C@H](CO)[C@@H](O)[C@H](O)[C@H]3O)C[C@]12C [Rg1]
amyloid-reducing activity in vitro [4]: no amyloid-reducing activity in vitro
inhibitory effects on Aβ40 production [2]: None
inhibitory effects on Aβ42 production [2]: None
Aβ42-lowering activity [2]: No

SMILES: CC(C)=CCCC(C)(O)C1CCC2(C)C1C(O)CC1C3(C)CCC(OC4OC(CO)C(O)C(O)C4OC4OC(CO)C(O)C(O)C4O)C(C)(C)C3CCC12C [(20R)Rg3]
potency of Aβ42-reducing activity (rank) [3]: Rk1>/=(20S)Rg3>Rg5>(20R)Rg3
secretion of Aβ42 [3]: not affected
generation of Aβ42 (Aβ42 levels in the medium, ELISA, normalized to intracellular full-length APP) ([2]; 50 μg/ml, 8 hrs, FIG. 4): reduce the generation of Aβ42
Aβ42-lowering activity [2]: Yes

Aβ42 generation in vitro [5]: no effects
SMILES: COc1ccc2cc([C@H](C)C(=O)O)ccc2c1 [naproxen, reference compound]

SMILES: C[C@H](NC(=O)Cc1cc(F)cc(F)c1)C(=O)N[C@H]1N=C(c2ccccc2)c2ccccc2N(C)C1=O [Compound E]
cell-free generation of NICD [6]: efficiently inhibited
cell-free generation of NICD ([6]; listed as Cpd.E): Very low amounts
cell-free generation of AICD [7]: efficiently inhibited
cell-free generation of AICD ([7]; listed as Cpd.E): Very low amounts
cell-free generation of p75-ICD [8]: efficiently inhibited
cell-free generation of p75-ICD ([8]; listed as Cpd.E): Very low amounts

SMILES: CC(C)=CCC[C@](C)(O)[C@H]1CC[C@]2(C)[C@@H]1[C@H](O)C[C@@H]1[C@@]3(C)CC[C@H](O)C(C)(C)[C@@H]3CC[C@]12C [PPD, 20(S)-protopanaxadiol]
Aβ42-lowering activity [2]: No
inhibitory effects on Aβ40 generation [1]: did not confer any inhibitory effects
inhibitory effects on Aβ42 generation [1]: did not confer any inhibitory effects

cell-free generation of AICD ([7]; listed as SS): abundantly produced
cell-free generation of AICD ([7]; listed as sulinac sulfide): did not affect
Aβ42 generation in vitro [5]: potently inhibited
SMILES: CSc1ccc(/C=C2/C(C)=C(CC(=O)O)c3cc(F)ccc32)cc1 [sulindac sulfide]
cell-free generation of NICD ([6]; listed as SS): abundantly produced
cell-free generation of NICD ([6]; listed as sulinac sulfide): did not affect
Aβ40 production ([2]; overnight treatment, FIG. 12B): slightly affected
cell-free generation of p75-ICD ([8]; listed as SS): abundantly produced
cell-free generation of p75-ICD ([8]; listed as sulinac sulfide): did not affect
